Experimental data: BindingDB's records for doi:10.1126/science.abf1611 (Sichuan University, 2021)
Where “and” joins values, the source holds several entries; their conditions need not be identical. Identical values can stand only once.

How the values were obtained:
[1] = target: T1, Replicase polyprotein 1ab (Severe acute respiratory syndrome coronavirus 2, UniProt P0DTD1); assay: The enzymatic inhibition assay
Procedure: The enzymatic inhibition assay was carried out with a final concentration of 100 nM recombinant SARS-CoV-2 Mpro and 20 μM FRET substrate. […] The initial velocities were calculated from the first 1 min of each reaction curve. The IC50 values were calculated using a dose-response model in GraphPad Prism 8.0 software. All experiments were performed in triplicate, and the values are presented as mean ± standard deviation (SD).

[2] = target: T1, Replicase polyprotein 1ab
[3] = target: T1, Replicase polyprotein 1ab; assay: scanning fluorimetry assay of HPAEpiC cells
Procedure: The differential scanning fluorimetry (DSF) assay was carried out on a CFX96 real-time PCR Detection System (Bio-Rad). […] The Mpro protein (final concentration: 2 μM) was pre-incubated with 40 μM of compounds for 30 min. […] The melt temperature (Tm) was calculated by using a Boltzmann model in GraphPad Prism 8.0 software. The thermal shift (ΔTm) was calculated using the equation ΔTm=Tm(compound)-Tm(DMSO). All experiments were performed in triplicate, and the values are presented as mean ± SD. HPAEpiC cells are used.

Compound | IC50 [1] | EC50 [2] [nM] | EC50 [3] [nM]
CC1(C)[C@@H]2[C@H](C(=O)N[C@H](C=O)C[C@@H]3CCNC3=O)N(C(=O)COc3ccc4ccccc4c3)C[C@@H]21 [11b] | 52 nM and 27 nM | 75 | –
CC1(C)[C@@H]2[C@H](C(=O)N[C@H](C=O)C[C@@H]3CCNC3=O)N(C(=O)c3ccc4ccccc4c3)C[C@@H]21 [MI-01] | 453 nM | – | –
CC1(C)[C@@H]2[C@H](C(=O)N[C@H](C=O)C[C@@H]3CCNC3=O)N(C(=O)CCc3cccc(F)c3)C[C@@H]21 [MI-03] | 17 nM | – | –
CC1(C)[C@@H]2[C@H](C(=O)N[C@H](C=O)C[C@@H]3CCNC3=O)N(C(=O)COc3cc(F)cc(F)c3)C[C@@H]21 [MI-04] | 19 nM | – | –
CC1(C)[C@@H]2[C@H](C(=O)N[C@H](C=O)C[C@@H]3CCNC3=O)N(C(=O)COc3ccc(F)c(F)c3)C[C@@H]21 [MI-05] | 13 nM | – | –
COc1ccc(OCC(=O)N2C[C@H]3[C@@H]([C@@H]2C(=O)N[C@H](C=O)C[C@@H]2CCNC2=O)C3(C)C)cc1OC [MI-06] | 15 nM | – | –
CC1(C)[C@@H]2[C@H](C(=O)N[C@H](C=O)C[C@@H]3CCNC3=O)N(C(=O)COc3ccc(C(F)(F)F)cc3)C[C@@H]21 [MI-07] | 43 nM | – | –
COc1ccc(OCC(=O)N2C[C@H]3[C@@H]([C@@H]2C(=O)N[C@H](C=O)C[C@@H]2CCNC2=O)C3(C)C)cc1F [MI-08] | 37 nM | – | –
CC1(C)[C@@H]2[C@H](C(=O)N[C@H](C=O)C[C@@H]3CCNC3=O)N(C(=O)COc3ccc(Cl)c(Br)c3)C[C@@H]21 [MI-10] | 51 nM | – | –
CC1(C)[C@@H]2[C@H](C(=O)N[C@H](C=O)C[C@@H]3CCNC3=O)N(C(=O)COc3ccc(Br)cc3Cl)C[C@@H]21 [MI-11] | 13 nM | – | –
CC1(C)[C@@H]2[C@H](C(=O)N[C@H](C=O)C[C@@H]3CCNC3=O)N(C(=O)COc3ccc(Cl)cc3)C[C@@H]21 [MI-12] | 19 nM | 97 | 7.3
CC1(C)[C@@H]2[C@H](C(=O)N[C@H](C=O)C[C@@H]3CCNC3=O)N(C(=O)COc3ccc(Cl)c(Cl)c3)C[C@@H]21 [MI-13] | 12 nM | – | –
CC1(C)[C@@H]2[C@H](C(=O)N[C@H](C=O)C[C@@H]3CCNC3=O)N(C(=O)COc3ccc(Cl)cc3Cl)C[C@@H]21 [MI-14] | 13 nM | 85 | 0.3
O=C[C@H](C[C@@H]1CCNC1=O)NC(=O)[C@H]1[C@@H]2CCC[C@H]2CN1C(=O)c1cccnc1 [MI-15] | 749 nM | – | –
O=C[C@H](C[C@@H]1CCNC1=O)NC(=O)[C@H]1[C@@H]2CCC[C@H]2CN1C(=O)c1cc2ccccc2[nH]1 [MI-16] | 153 nM | – | –
O=C[C@H](C[C@@H]1CCNC1=O)NC(=O)[C@H]1[C@@H]2CCC[C@H]2CN1C(=O)c1cc2ccccn2n1 [MI-17] | 299 nM | – | –
O=C[C@H](C[C@@H]1CCNC1=O)NC(=O)[C@H]1[C@@H]2CCC[C@H]2CN1C(=O)/C=C/c1ccccc1 [MI-18] | 526 nM | – | –
COc1ccc(/C=C/C(=O)N2C[C@@H]3CCC[C@H]3[C@@H]2C(=O)N[C@H](C=O)C[C@@H]2CCNC2=O)c(OC)c1 [MI-19] | 196 nM | – | –
CNc1ccc(/C=C/C(=O)N2C[C@@H]3CCC[C@H]3[C@@H]2C(=O)N[C@H](C=O)C[C@@H]2CCNC2=O)cc1 [MI-20] | 375 nM | – | –
O=C[C@H](C[C@@H]1CCNC1=O)NC(=O)[C@H]1[C@@H]2CCC[C@H]2CN1C(=O)CCc1ccc(F)c(F)c1 [MI-22] | 17 nM | – | –
CN(C)c1ccc(CCC(=O)N2C[C@@H]3CCC[C@H]3[C@@H]2C(=O)N[C@H](C=O)C[C@@H]2CCNC2=O)cc1 [MI-24] | 378 nM | – | –
COc1ccc(OCC(=O)N2C[C@@H]3CCC[C@H]3[C@@H]2C(=O)N[C@H](C=O)C[C@@H]2CCNC2=O)cc1 [MI-25] | 36 nM | – | –
COc1ccc(OC(C)C(=O)N2C[C@@H]3CCC[C@H]3[C@@H]2C(=O)N[C@H](C=O)C[C@@H]2CCNC2=O)cc1 (stereo partly specified) [MI-26] | 69 nM | – | –
O=C[C@H](C[C@@H]1CCNC1=O)NC(=O)[C@H]1[C@@H]2CCC[C@H]2CN1C(=O)COc1ccc2c(c1)OCCO2 [MI-27] | 94 nM | – | –
O=C[C@H](C[C@@H]1CCNC1=O)NC(=O)[C@H]1[C@@H]2CCC[C@H]2CN1C(=O)COc1ccc(Cl)cc1 [MI-28] | – | 42 | 2.2
O=C[C@H](C[C@@H]1CCNC1=O)NC(=O)[C@H]1[C@@H]2CCC[C@H]2CN1C(=O)COc1ccc(Cl)cc1F [MI-29] | 35 nM | – | –
O=C[C@H](C[C@@H]1CCNC1=O)NC(=O)[C@H]1[C@@H]2CCC[C@H]2CN1C(=O)COc1ccc(Cl)c(Cl)c1 [MI-31] | 30 nM | 62 | 0.4
Cc1cc(Cl)ccc1OCC(=O)N1C[C@@H]2CCC[C@H]2[C@@H]1C(=O)N[C@H](C=O)C[C@@H]1CCNC1=O [MI-32] | 20 nM | – | –
